Results from US11672792B2, “Topical formulations comprising montelukast and combinations with mussel adhesive proteins” (ENLITISA (SHANGHAI) PHARMACEUTICAL CO., LTD, priority 2017, dated 2023).

Test system: carrageenan-induced acute inflammation in subcutaneous air pouch
Assay: Air Pouch Model II (Example 2)
Assay type: in vivo, mice
Protocol: In Table 6, “Dex” is an abbreviation for dexamethasone and “Dopamine” is a 4 mg/mL aqueous solution of dopamine hydrochloride (Shanghai Aladdin Bio-Chem Technology Co., Ltd., Shanghai, China).
The histological specimens were analysed and an inflammation score, an activity score and a fibroplastic proliferation score were estimated as in Example 1 above and are tabulated in Table 9 below.

[1] = Dex 400 μg, Dopamine 2 mg, MAP 250 μg, Mon 100 μg
[2] = doses/mouse: Dex 400 μg, Dopamine 2 mg, MAP 250 μg, Mon 100 μg

Cl.NCCc1ccc(O)c(O)c1 [Dopamine, dopamine hydrochloride]
Activity score [1]: 1.67 | Edema Score [1]: 2.33 | Fibroplastic proliferation score [1]: 0.00 | IFN-γ in exudate (ELISA) [1]: 5153.02 ± 5773.45 | IL-6 in exudate (ELISA) [1]: 1740.11 ± 765.02 | Inflammation score [1]: 2.00 | Leukocyte count in exudate [1]: 1.91e+06 mL⁻¹ | Lymphocyte count in exudate [1]: 50000 mL⁻¹ | Monocyte count in exudate [1]: 1.58e+06 mL⁻¹ | Neutrophil count in exudate [1]: 190000 mL⁻¹ | Sum (of histology scores) [1]: 6.00 | Exudate volume [2]: 2.93 ± 0.06 mL | Pouch Wall Weight [2]: 0.44 ± 0.07 g | pouch wall fibrous tissue proliferation (in words) (histology): no fibrous tissue proliferation | pouch wall inflammatory / lymph cell infiltration (in words) (histology): a lot of | pouch wall interstitial edema (in words) (histology): mild to moderate
